This passage reports EC50 results from patent US9932356B2, “Pyrazolopyrimidine macrocycles as inhibitors of human immunodeficiency virus replication” (priority 2014, dated 2018).

The test has as its system NL-RLuc virus. Kind of test: Inhibition of HIV replication (NL-RLuc luciferase reporter virus in MT-2 cells). The conditions noted are these: Human immunodeficiency virus 1, MT2, 120 h. The test is classed as cell-based. The source says:
Inhibition of HIV replication: A recombinant NL-RLuc proviral clone was constructed in which a section of the nef gene from NL4-3 was replaced with the Renilla Luciferase gene. This virus is fully infectious and can undergo multiple cycles of replication in cell culture. In addition, the luciferous reporter provides a simple and easy method for quantitating the extent of virus growth and consequently, the antiviral activity of test compounds. The plasmid pNLRLuc contains the proviral NL-Rluc DNA cloned into pUC18 at the PvuII site. The NL-RLuc virus was prepared by transfection of 293T cells with the plasmid pNLRLuc. Transfections were performed using the LipofectAMINE PLUS kit from Invitrogen (Carlsbad, Calif.) according to the manufacturer and the virus generated was titered in MT-2 cells. For susceptibility analyses, the titrated virus was used to infect MT-2 cells in the presence of compound, and after 5 days of incubation, cells were processed and quantitated for virus growth by the amount of expressed luciferase. Assay media was RPMI 1640 supplemented with 10% heat inactivated fetal bovine serum (FBS), 100 units/ml penicillin G/100 units/ml streptomycin, 10 mM HEPES buffer pH 7.55 and 2 mM L-glutamine. The results from at least 2 experiments were used to calculate the EC50 values. Luciferase was quantitated using the Dual Luciferase kit from Promega (Madison, Wis.). Susceptibility of viruses to compounds was determined by incubation in the presence of serial dilutions of the compound. The 50% effective concentration (EC50) was calculated by using the exponential form of the median effect equation where (Fa)=1/[1+(ED50/drug conc.)^m] (Johnson V A, Byington R T. Infectivity Assay. In Techniques in HIV Research. ed. Aldovini A, Walker B D. 71-76. New York: Stockton Press. 1990).

`Cc1nc2cc3nn2c(c1[C@H](OC(C)(C)C)C(=O)O)N1CCC(C)(CC1)OC/C=C/CCc1ccn(n1)-c1cccc-3c1` [Example 1, (2S)-tert-Butoxy[(21E)-4,25-dimethyl-24-oxa-1,5,7,8,15,30-hexaazahexacyclo[23.2.2.1^6,9.1^10,14.1^15,18.0^2,7]dotriaconta-2,4,6(32),8,10(31),11,13,16,18(30),21-decaen-3-yl]acetic acid] returned a 50% effective concentration (EC50) of 87 nM.

The molecule `Cc1nc2cc3nn2c(c1[C@H](OC(C)(C)C)C(=O)O)N1CCC(C)(CC1)OCCCCCc1ccn(n1)-c1cccc-3c1` [Example 2, (2S)-tert-Butoxy[4,25-dimethyl-24-oxa-1,5,7,8,15,30-hexaazahexacyclo[23.2.2.1^6,9.1^10,14.1^15,18.0^2,7]dotriaconta-2,4,6(32),8,10(31),11,13,16,18(30)-nonaen-3-yl]acetic acid] gave an EC50 of 49 nM.

`Cc1nc2cc3nn2c(c1[C@H](OC(C)(C)C)C(=O)O)N1CCC(C)(CC1)OCCCCCn1ccc(n1)-c1cccc-3c1` [Example 3, (2S)-tert-Butoxy[4,25-dimethyl-24-oxa-1,5,7,8,18,30-hexaazahexacyclo[23.2.2.1^6,9.1^10,14.1^15,18.0^2,7]dotriaconta-2,4,6(32),8,10(31),11,13,15(30),16-nonaen-3-yl]acetic acid] showed a half-maximal effective concentration (EC50) of 26 nM.

In the case of `Cc1nc2cc3nn2c(c1[C@H](OC(C)(C)C)C(=O)O)N1CCC(C)(CC1)OCCCCn1ccc(n1)-c1cccc-3c1` [Example 4, (2S)-tert-butoxy[4,24-dimethyl-23-oxa-1,5,7,8,18,29-hexaazahexacyclo[22.2.2.1^6,9.1^10,14.1^15,18.0^2,7]hentriaconta-2,4,6(31),8,10(30),11,13,15(29),16-nonaen-3-yl]acetic acid], the EC50 was 14 nM.

Consider `Cc1cc2n(n1)-c1cccc(c1)-c1cc3nc(C)c([C@H](OC(C)(C)C)C(=O)O)c(n3n1)N1CCC(C)(CCCCCC2)CC1` [Example 5, (2S)-tert-Butoxy[4,17,26-trimethyl-1,5,7,8,15,16-hexaazahexacyclo[24.2.2.1^6,9.1^10,14.0^2,7.0^15,19]dotriaconta-2,4,6(32),8,10(31),11,13,16,18-nonaen-3-yl]acetic acid], for which the response was half-maximal at 4 nM (EC50).

`Cc1cc2n(n1)-c1cccc(c1)-c1cc3nc(C)c([C@H](OC(C)(C)C)C(=O)O)c(n3n1)N1CCC(C)(CCCCC2)CC1` [Example 6, (2S)-tert-butoxy[4,17,25-trimethyl-1,5,7,8,15,16-hexaazahexacyclo[23.2.2.1^6,9.1^10,14.0^2,7.0^15,19]hentriaconta-2,4,6(31),8,10(30),11,13,16,18-nonaen-3-yl]acetic acid] returned an EC50 of 7 nM.

On to `Cc1nc2c(s1)CCCCCCC1(C)CCN(CC1)c1c([C@H](OC(C)(C)C)C(=O)O)c(C)nc3cc(nn13)-c1cccc-2c1` [Example 7, (2S)-tert-Butoxy[4,17,26-trimethyl-18-thia-1,5,7,8,16-pentaazahexacyclo[24.2.2.1^6,9.1^10,14.0^2,7.0^15,19]dotriaconta-2,4,6(32),8,10(31),11,13,15(19),16-nonaen-3-yl]acetic acid], for which a half-maximal effect (EC50) was put at 7 nM.

Turning to `Cc1nc2c(s1)CCCCCC1(C)CCN(CC1)c1c([C@H](OC(C)(C)C)C(=O)O)c(C)nc3cc(nn13)-c1cccc-2c1` [Example 8, (2S)-tert-butoxy[4,17,25-trimethyl-18-thia-1,5,7,8,16-pentaazahexacyclo[23.2.2.1^6,9.1^10,14.0^2,7.0^15,19]hentriaconta-2,4,6(31),8,10(30),11,13,15(19),16-nonaen-3-yl]acetic acid], the EC50 was found to be 7 nM.

`Cc1nc2cc3nn2c(c1[C@H](OC(C)(C)C)C(=O)O)N1CCC(C)(CC/C=C/CCc2nc(C)c(C)n2-c2cccc-3c2)CC1` [Example 9, (2S)-tert-Butoxy[4,16,17,26-tetramethyl-1,5,7,8,15,18-hexaazahexacyclo[24.2.2.1^6,9.1^10,14.0^2,7.0^15,19]dotriaconta-2,4,6(32),8,10(31),11,13,16,18,22-decaen-3-yl]acetic acid] gave a half-maximal effective concentration (EC50) of 9 nM.

On to `Cc1nc2cc3nn2c(c1[C@H](OC(C)(C)C)C(=O)O)N1CCC(C)(CCCCCCc2nc(C)c(C)n2-c2cccc-3c2)CC1` [Example 10, (2S)-tert-Butoxy[4,16,17,26-tetramethyl-1,5,7,8,15,18-hexaazahexacyclo[24.2.2.1^6,9.1^10,14.0^2,7.0^15,19]dotriaconta-2,4,6(32),8,10(31),11,13,16,18-nonaen-3-yl]acetic acid], for which the midpoint of the response, the EC50, lay at 7 nM.
